In patent US10266526B2, “Substituted 1,2,3-triazoles as SMYD inhibitors for treating cancer” (EPIZYME, INC., priority 2014, dated 2019) one finds IC50 data, which are given here for 17 compounds.

A value given as a limit tells only on which side of the number the result lay.

Sequence of SMYD3 (Q9H7B4 whole entry): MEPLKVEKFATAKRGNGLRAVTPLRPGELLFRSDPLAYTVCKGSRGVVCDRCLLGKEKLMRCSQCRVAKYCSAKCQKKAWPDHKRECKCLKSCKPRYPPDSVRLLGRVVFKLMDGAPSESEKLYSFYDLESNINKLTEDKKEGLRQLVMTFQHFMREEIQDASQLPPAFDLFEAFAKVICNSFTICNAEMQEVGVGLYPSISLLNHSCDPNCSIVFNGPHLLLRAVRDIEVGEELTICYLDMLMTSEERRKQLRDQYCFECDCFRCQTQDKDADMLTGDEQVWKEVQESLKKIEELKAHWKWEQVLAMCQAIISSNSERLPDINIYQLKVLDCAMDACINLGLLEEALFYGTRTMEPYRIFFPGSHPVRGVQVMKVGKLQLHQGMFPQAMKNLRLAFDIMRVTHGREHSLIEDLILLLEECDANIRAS

The experiment addresses SMYD3 (Homo sapiens (Human), UniProt Q9H7B4). The experiment in a line: SMYD3 biochemical assay (SMYD3 enzyme assay on MEKK2 protein substrate, 3H-SAM scintillation proximity assay). As to conditions: read-out: SMYD3 Biochem IC50. The essentials:
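Detection used scintillation proximity beads to capture ³H-methylated GST-MEKK2 after quench with 100 uM final cold SAM. The reaction was started by SAM/MEKK2 addition after a 30 min RT compound–enzyme preincubation. Enzyme was tag-free full-length human SMYD3 from E. coli, in buffer of 25 mM Tris-Cl pH 8.0, 1 mM TCEP, 0.005% BSG, 0.005% Tween 20.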
Background: In a scintillation proximity assay essentially only radioactivity close to the scintillant gives light.
In the case of `CC(NC(=O)/C=C/c1c[nH]cn1)C1CCN(C(=O)[C@H](C)N)CC1` (stereo partly drawn) [compound 494, (E)-N-(1-(1-(L-alanyl)piperidin-4-yl)ethyl)-3-(1H-imidazol-4-yl)acrylamide], the IC50 (commonly the concentration at which inhibition is half-maximal) was greater than 100 µM.
Then `N[C@H]1CC[C@H](NC(=O)/C=C/c2c[nH]cn2)CC1` [compound 495, (E)-N-((1r,4r)-4-aminocyclohexyl)-3-(1H-imidazol-4-yl)acrylamide], with greater than 100 µM; and `CC(NC(=O)c1cc2cn[nH]c2cn1)C1CCN(C(=O)[C@H](C)N)CC1` (stereo partly drawn) [compound 496, N-(1-(1-(L-alanyl)piperidin-4-yl)ethyl)-1H-pyrazolo[3,4-c]pyridine-5-carboxamide], with 6.57 µM.
Then `N[C@H]1CC[C@H](NC(=O)c2cc3cn[nH]c3cn2)CC1` [compound 497, N-((1r,4r)-4-aminocyclohexyl)-1H-pyrazolo[3,4-c]pyridine-5-carboxamide], with 35.7 µM; and `CC(NC(=O)c1nc2ccc(F)cc2s1)C1CCN(C(=O)[C@H](C)N)CC1` (stereo partly drawn) [compound 498, N-(1-(1-(L-alanyl)piperidin-4-yl)ethyl)-6-fluorobenzo[d]thiazole-2-carboxamide], with 51 µM.
Then `NCCC(=O)N[C@H]1CC[C@H](NC(=O)c2nc3ccc(F)cc3s2)CC1` [compound 499, N-((1r,4r)-4-(3-aminopropanamido)cyclohexyl)-6-fluorobenzo[d]thiazole-2-carboxamide], with 86.3 µM; and `N[C@H]1CC[C@H](NC(=O)c2nc3ccc(F)cc3s2)CC1` [compound 500, N-((1r,4r)-4-aminocyclohexyl)-6-fluorobenzo[d]thiazole-2-carboxamide], with greater than 100 µM; and `NC(=O)Cn1cc(C(=O)N[C@H]2CC[C@H](N)CC2)nn1` [compound 501, 1-(2-amino-2-oxoethyl)-N-((1r,4r)-4-aminocyclohexyl)-1H-1,2,3-triazole-4-carboxamide], with 50 µM.
As for `N[C@H]1CC[C@H](NC(=O)c2ncc[nH]2)CC1` [compound 502, N-((1r,4r)-4-aminocyclohexyl)-1H-imidazole-2-carboxamide], the IC50 is greater than 100 µM.
Then `NCCC(=O)N[C@H]1CC[C@H](NC(=O)c2ccc3c(c2)CNC3=O)CC1` [compound 503, N-((1r,4r)-4-(3-aminopropanamido)cyclohexyl)-1-oxoisoindoline-5-carboxamide], with greater than 100 µM; and `NCCC(=O)N[C@H]1CC[C@H](NC(=O)c2ccc3c(c2)C(=O)C(=O)N3)CC1` [compound 504, N-((1r,4r)-4-(3-aminopropanamido)cyclohexyl)-2,3-dioxoindoline-5-carboxamide], with 5.38 µM; and `NC1CCC(NC(=O)c2cccc3c2NC(=O)C3)CC1` (centres unmarked) [compound 506, N-(4-aminocyclohexyl)-2-oxoindoline-7-carboxamide], with 42.3 µM.
In the case of `Cn1ncnc1C(=O)N[C@H]1CC[C@H](N)CC1` [compound 507, N-((1r,4r)-4-aminocyclohexyl)-1-methyl-1H-1,2,4-triazole-5-carboxamide], the IC50 was greater than 100 µM.
Then `Nc1n[nH]c(C(=O)N[C@H]2CC[C@H](N)CC2)n1` [compound 508, 3-amino-N-((1r,4r)-4-aminocyclohexyl)-1H-1,2,4-triazole-5-carboxamide], with greater than 50 µM; and `CC(NC(=O)c1cncnc1O)C1CCN(C(=O)[C@H](C)N)CC1` (stereo partly drawn) [compound 509, N-(1-(1-(L-alanyl)piperidin-4-yl)ethyl)-4-hydroxypyrimidine-5-carboxamide], with greater than 50 µM; and `NCCC(=O)N[C@H]1CC[C@H](NC(=O)c2cncnc2O)CC1` [compound 510, N-((1r,4r)-4-(3-aminopropanamido)cyclohexyl)-4-hydroxypyrimidine-5-carboxamide], with greater than 50 µM.
Then `CC(NC(=O)c1ncccc1O)C1CCN(C(=O)[C@H](C)N)CC1` (stereo partly drawn) [compound 511, N-(1-(1-(L-alanyl)piperidin-4-yl)ethyl)-3-hydroxypicolinamide], with greater than 50 µM.
